Assay results from patent publication US9393314B2, “Meloxicam eye drops and preparation method and use thereof” (KANGYA OF NINGXIA PHARMACEUTICALS CO., LTD., priority 2013, dated 2016).
Marks after values point to notes of the source that are not given here.

System: rabbit eyes (aqueous humor protein concentration)
Assay: Rabbit eye anterior chamber puncture test
Assay type: in vivo
Protocol: Thirty-six rabbits without ocular abnormalities were taken and randomly divided into six groups, with six rabbits in each group. The groups are respectively saline group, medium control group, positive control group of diclofenac sodium, 0.025%, 0.05% and 0.1% meloxicam eye drops groups. Then 0.05 mL drug solution was dropped into the rabbit eyes for experiment. The eyes were forced to be closed for 10 seconds; 45 minutes later, under local anesthesia with 0.2 mL of 1% tetracaine drops, puncturing was performed with 41/2 needle from the edge of the limbus to take 0.2 mL of primary aqueous humor; 90 minutes later, puncturing was performed again to take the secondary aqueous humor. Those two batches of aqueous humor were diluted 2-fold and 50-fold respectively. Then 0.05 mL of distilled water, aqueous humor dilution and protein standard solution were taken, 3 mL Coomassie brilliant blue staining solution was added thereto respectively, after 10 minutes of reaction, their absorbance values at 595 nm were measured, and the protein content was calculated according to the following formula: [formula]

O=C(O)Cc1ccccc1Nc1c(Cl)cccc1Cl [Diclofenac sodium]
Protein concentration in aqueous humor, Primary (0.05 ml/eye, puncture 45 minutes after dosing, x ± s, n 6): 0.52 ± 0.19 mg/mL | Protein concentration in aqueous humor, Secondary (0.05 ml/eye, second puncture 90 minutes later, x ± s, n 6): 18.05 ± 3.01**^ΔΔ mg/ml | inhibition of the increase in aqueous humor protein concentration caused by puncture of anterior chamber (vs saline and medium control groups): significantly inhibit
